Results from article PMC11003488 (Journal of Enzyme Inhibition and Medicinal Chemistry, 2023).

How the values were obtained:
[1] = test system: KM12; assay: NCI-60 SRB growth inhibition, one-dose and five-dose; assay type: cell-based; settings: Homo sapiens
[2] = test system: NCI-H522; assay: as above; assay type: cell-based; settings: Homo sapiens
[3] = test system: A549/ATCC; assay: as above; assay type: cell-based; settings: Homo sapiens
[4] = test system: DU-145; assay: as above; assay type: cell-based; settings: Homo sapiens
[5] = test system: HCT-15; assay: as above; assay type: cell-based; settings: Homo sapiens
[6] = test system: HL-60(TB); assay: cells; assay type: cell-based; settings: Homo sapiens
[7] = test system: MCF7; assay: NCI-60 SRB growth inhibition, one-dose and five-dose; assay type: cell-based; settings: Homo sapiens
[8] = test system: OVCAR-4; assay: as above; assay type: cell-based; settings: Homo sapiens
[9] = test system: COLO 205; assay: as above; assay type: cell-based; settings: Homo sapiens
[10] = test system: SK-MEL-28; assay: as above; assay type: cell-based; settings: Homo sapiens
[11] = test system: HOP-92; assay: as above; assay type: cell-based; settings: Homo sapiens
[12] = test system: T-47D; assay: as above; assay type: cell-based; settings: Homo sapiens, T47D
[13] = test system: SK-MEL-2; assay: as above; assay type: cell-based; settings: Homo sapiens, SK-MEL-2, read-out: percent growth inhibition
[14] = test system: NCI-H226; assay: as above; assay type: cell-based; settings: Homo sapiens
[15] = test system: SR; assay: as above; assay type: cell-based; settings: Homo sapiens
[16] = test system: HOP-62; assay: as above; assay type: cell-based; settings: Homo sapiens
[17] = test system: SF-539; assay: as above; assay type: cell-based; settings: Homo sapiens
[18] = test system: SF-268; assay: as above; assay type: cell-based; settings: Homo sapiens
[19] = test system: IGROV1; assay: as above; assay type: cell-based; settings: Homo sapiens
[20] = test system: CAKI-1; assay: as above; assay type: cell-based; settings: Homo sapiens
[21] = test system: OVCAR-3; assay: as above; assay type: cell-based; settings: Homo sapiens
[22] = test system: MOLT-4; assay: as above; assay type: cell-based; settings: Homo sapiens
[23] = test system: MALME-3M; assay: as above; assay type: cell-based; settings: Homo sapiens
[24] = test system: SNB-19; assay: as above; assay type: cell-based; settings: Homo sapiens
[25] = test system: NCI 60-cell line panel (full panel); assay: NCI-60 SRB growth inhibition, full panel mean / MG-MID; assay type: cell-based, human
[26] = test system: LOX IMVI; assay: NCI-60 SRB growth inhibition, one-dose and five-dose; assay type: cell-based; settings: Homo sapiens
[27] = test system: SK-MEL-5; assay: as above; assay type: cell-based; settings: Homo sapiens
[28] = test system: MDA-MB-435; assay: as above; assay type: cell-based; settings: Homo sapiens
[29] = test system: HS 578 T; assay: as above; assay type: cell-based; settings: Homo sapiens
[30] = test system: EKVX; assay: as above; assay type: cell-based; settings: Homo sapiens
[31] = test system: BT-549; assay: as above; assay type: cell-based; settings: Homo sapiens
[32] = test system: K-562; assay: as above; assay type: cell-based; settings: Homo sapiens
[33] = test system: RXF 393; assay: as above; assay type: cell-based; settings: Homo sapiens
[34] = test system: MDA-MB-468; assay: as above; assay type: cell-based; settings: Homo sapiens
[35] = test system: HCT-116; assay: as above; assay type: cell-based; settings: Homo sapiens
[36] = test system: OVCAR-5; assay: as above; assay type: cell-based; settings: Homo sapiens
[37] = test system: OVCAR-8; assay: as above; assay type: cell-based; settings: Homo sapiens, OVCAR-8, read-out: percent growth inhibition
[38] = test system: CCRF-CEM; assay: as above; assay type: cell-based; settings: Homo sapiens
[39] = test system: PC-3; assay: as above; assay type: cell-based; settings: Homo sapiens
[40] = test system: A498; assay: as above; assay type: cell-based; settings: Homo sapiens
[41] = test system: U251; assay: as above; assay type: cell-based; settings: Homo sapiens
[42] = test system: HCC-2998; assay: as above; assay type: cell-based; settings: Homo sapiens
[43] = read-out: percent growth inhibition

CC(=O)Nc1ccc(/C=C/C(=O)c2cccc(NCc3csc4ccccc34)c2)cc1 [Compound 5i, (E)-N-(4–(3-(3-((benzo[b]thiophen-3-ylmethyl)amino)phenyl)-3-oxoprop-1-en-1-yl)phenyl) acetamide]
GI50 ([1]; KM12): 5.12 µM
inhibition at 10 µM ([1]; KM12, read-out: percent growth inhibition): 129%
GI50 ([2]; NCI-H522): 5.78 µM
inhibition at 10 µM ([2]; NCI-H522, read-out: percent growth inhibition): 87.6%
GI50 ([3]; A549): 17 µM
inhibition at 10 µM ([3]; A549, read-out: percent growth inhibition): 45.8%
GI50 ([4]; DU-145): 5.45 µM
inhibition at 10 µM ([4]; DU-145, read-out: percent growth inhibition): 74.7%
GI50 ([5]; HCT-15): 2.1 µM
inhibition at 10 µM ([5]; HCT-15, read-out: percent growth inhibition): 142%
GI50 ([6]; HL-60): 3.53 µM
inhibition at 10 µM ([6]; HL-60, read-out: percent growth inhibition): 123%
GI50 ([7]; MCF7): 2.4 µM
inhibition at 10 µM ([7]; MCF7, read-out: percent growth inhibition): 130%
GI50 ([8]; OVCAR-4): 9.52 µM
inhibition at 10 µM ([8]; OVCAR-4, read-out: percent growth inhibition): 64.8%
GI50 ([9]; COLO 205): 17 µM
inhibition at 10 µM ([9]; COLO 205, read-out: percent growth inhibition): 19.8%
GI50 ([10]; SK-MEL-28): 11.9 µM
inhibition at 10 µM ([10]; SK-MEL-28, read-out: percent growth inhibition): 53.4%
GI50 ([11]; HOP-92): 18.3 µM
inhibition at 10 µM ([11]; HOP-92, read-out: percent growth inhibition): 12.3%
GI50 [12]: 4.14 µM
inhibition at 10 µM [12, 43]: 79.7%
inhibition at 10 µM [13]: 39.9%
GI50 ([14]; NCI-H226): 7.73 µM
inhibition at 10 µM ([14]; NCI-H226, read-out: percent growth inhibition): 91.9%
GI50 [15]: 2.79 µM
GI50 ([16]; HOP-62): 11.2 µM
inhibition at 10 µM ([16]; HOP-62, read-out: percent growth inhibition): 73.8%
GI50 ([17]; SF-539): 2.74 µM
inhibition at 10 µM ([17]; SF-539, read-out: percent growth inhibition): 171%
GI50 ([18]; SF-268): 12.7 µM
inhibition at 10 µM ([18]; SF-268, read-out: percent growth inhibition): 80%
GI50 ([19]; IGROV-1): 4.18 µM
inhibition at 10 µM ([19]; IGROV-1, read-out: percent growth inhibition): 56.9%
GI50 ([20]; CAKI-1): 18.4 µM
inhibition at 10 µM ([20]; CAKI-1, read-out: percent growth inhibition): 57.7%
GI50 ([21]; OVCAR-3): 3.47 µM
inhibition at 10 µM ([21]; OVCAR-3, read-out: percent growth inhibition): 133%
GI50 ([22]; MOLT-4): 2.73 µM
inhibition at 10 µM ([22]; MOLT-4, read-out: percent growth inhibition): 111%
GI50 [23]: 9.28 µM
inhibition at 10 µM [23, 43]: 55.5%
GI50 ([24]; SNB-19): 3.76 µM
inhibition at 10 µM ([24]; SNB-19, read-out: percent growth inhibition): 98%
GI50 ([25]; Homo sapiens, 60 cell, read-out: Full panel GI50 mean): 7.06 µM
Full panel Mean GI % ([25]; mean over NCI-60 panel, single dose 10 µM): 82.81%
GI50 [26]: 2.05 µM
inhibition at 10 µM [26, 43]: 174%
GI50 ([27]; SK-MEL-5): 5.97 µM
inhibition at 10 µM ([27]; SK-MEL-5, read-out: percent growth inhibition): 85.9%
GI50 ([28]; MDA-MB-435): 4.37 µM
inhibition at 10 µM ([28]; MDA-MB-435, read-out: percent growth inhibition): 49.2%
GI50 [29]: 4.49 µM
inhibition at 10 µM [29, 43]: 68.5%
GI50 [30]: 10.8 µM
inhibition at 10 µM [30, 43]: 73%
GI50 ([31]; BT-549): 4.29 µM
inhibition at 10 µM ([31]; BT-549, read-out: percent growth inhibition): 83.6%
GI50 ([32]; K562): 3.07 µM
inhibition at 10 µM ([32]; K562, read-out: percent growth inhibition): 114%
GI50 ([33]; RXF 393): 10 µM
inhibition at 10 µM ([33]; RXF 393, read-out: percent growth inhibition): 93.2%
GI50 ([34]; MDA-MB-468): 4 µM
inhibition at 10 µM ([34]; MDA-MB-468, read-out: percent growth inhibition): 97.9%
GI50 ([35]; HCT-116, HCT-116, five-dose screening): 2.02 µM
inhibition at 10 µM ([35]; HCT-116, read-out: percent growth inhibition): 180%
GI50 ([36]; OVCAR-5): 13 µM
inhibition at 10 µM ([36]; OVCAR-5, read-out: percent growth inhibition): 30.4%
inhibition at 10 µM [37]: 131%
GI50 [38]: 2.87 µM
inhibition at 10 µM [38, 43]: 125%
GI50 ([39]; PC-3): 4.57 µM
inhibition at 10 µM ([39]; PC-3, read-out: percent growth inhibition): 70.8%
GI50 ([40]; A498): 17.4 µM
inhibition at 10 µM ([40]; A498, read-out: percent growth inhibition): 9.33%
GI50 ([41]; U-251): 2.24 µM
inhibition at 10 µM ([41]; U-251, read-out: percent growth inhibition): 165%
GI50 ([42]; HCC 2998): 12.4 µM
inhibition at 10 µM ([42]; HCC 2998, read-out: percent growth inhibition): 56%
